Results from patent US10098895B2, “Treatment of symptoms related to neurodegenerative disorders through pharmacological dermal activation of cranial nerves” (GLIA, LLC, priority 2016, dated 2018).

Tested on: essential tremor
Assay: Example 7: essential tremor subject with contact lens discomfort
Type: in vivo, human
Protocol: A person developed persistent right hand tremors of a kinetic (non-resting) type that has been continuous over the past 6 years. […] This condition had not worsened over time. […] Initially, their doctor thought that these symptoms were stress related and they have been taking 2.5 mg of escitalopram for over 6 years. […] The subject was not on hormone replacement therapy or any other medication.
Concomitantly, the subject suffered from uncomfortable eyes, with a sticky burning sensation and development of blurred vision after about 5-6 hours of contact lens wear. For the past 3 years, the subject was administered 1% progesterone gel (1 mg per day) by dermal application to the forehead once per night. The progesterone gel prolonged comfortable contact lens wear time with sustained visual acuity from 5-6 hours to greater than 15 hours. […] After 2 years of treatment, the benefits of progesterone dermal application persisted for at least 3 days without treatment. There was no effect of the progesterone on their tremor symptoms.
After allowing for washout of progesterone for 3 days, they began forehead application of 0.5-0.75 mg dronabinol once daily at night.
The dronabinol administration regimen was altered by dividing equally the once daily dose of 0.5-0.75 mg dronabinol between the conchae of the left ear, the conchae of the right ear, and the forehead. […] Comfortable contact lens wear, with ease of insertion and removal, and visual acuity extends for 15 hours or more after dronabinol application.
Contact lens comfort wear duration was greater than 15 hours.
In April 2017, the subject, while still being treated with 1% progesterone applied to the forehead, instituted a once-daily low dose topical testosterone applied to the forehead and ear conchae to determine if doing so would produce a beneficial impact on further tremor reduction and in particular essential tremor triggered by caffeine consumption. […] They stopped the treatment to assess whether the tremor would return to pre-testosterone treatment levels. As of August 2017, the subject is without noticeable tremor. The caffeine trigger for tremor onset, which had been recognized throughout all treatments, has not re-appeared since the completion of the 4-week testosterone treatment. The subject continues on low-dose progesterone 1% applied daily to the forehead as the only treatment.

[1] = progesterone 0.5% to the concha of both ears

## CC(=O)[C@H]1CC[C@H]2[C@@H]3CCC4=CC(=O)CC[C@]4(C)[C@H]3CC[C@]12C [progesterone]
1% progesterone gel (1 mg per day) to forehead
  tremor symptoms: no effect
1% progesterone gel (1 mg per day) to forehead once per night, from 5-6 hours before
  comfortable contact lens wear time with sustained visual acuity: greater than 15 hours
After 2 years of progesterone dermal application to forehead
  persistence of benefits without treatment: at least 3 days
human, in vivo
  adverse events: no adverse events
  routine mammography and serum hormone levels: normal
Low dose progesterone 1% to the forehead only, daily, 12 months up to August 2017
  comfortable contact lens wear: 15 h
Maintenance dose of progesterone 1% to forehead after testosterone course
  tremor on maintenance treatment: tremor-free
[1]
  contact lens comfort wear duration: greater than 15 hours
  hand tremor: subsided to the same degree as it did with dronabinol treatment
